Columns and labels:
[1] = tested on: rabbit progesterone receptor (rbPR) and glucocorticoid receptor (rbGR); assay: Receptor-binding assays, ratio of relative binding affinities rbPR/rbGR; conditions: RBA = EC50 of standard/EC50 of test compound x 100
Protocol: Certain antiprogestins were tested in receptor-binding assays for their ability to bind rabbit progesterone receptor (rbPR) and glucocorticoid receptor (rbGR). Briefly, cytosol containing PR or GR were prepared in TEGMD buffer (10 mM Tris, pH 7.2, 1.5 mM EDTA, 0.2 mM sodium molybdate, 10% glycerol, 1 mM DTT) from uterus or thymus, respectively, of estradiol-primed immature rabbits. For PR binding, the cytosol was incubated with 6 nM 1,2-[^3H]progesterone (50.0 Ci/mmole) and competitors were added at concentrations from 2 to 100 nM. For binding to GR, the cytosol was incubated with 6 nM 6,7-[^3H]-dexamethasone (40 Ci/mmol) and test compounds were added at concentrations from 20 to 100 nM. After overnight incubation at 4° C., bound and unbound [^3H] steroids were separated by addition of dextran-coated charcoal and centrifugation at 2100×g for 15 min at 4
C. Supernatants containing the [3H]-steroid receptor complexes were decanted into vials containing 4 ml Optifluor (Packard Instrument Co.), vortexed, equilibrated in a liquid scintillation counter for 30 minutes and then counted for 2 minutes. The ECso (Effective Concentration) for each standard curve and each of the compound curves was determined by entering the counting data into a four parameter sigmoidal computer program (RiaSmart® Immunoassay Data Reduction Program, Packard Instrument Co., Meriden, Conn.). Relative binding affinity (RBA) for each compound was calculated using the following equation: EC50 of standard/EC50 of test compound×100. The standards for the PR and GR assays were unlabeled progesterone and dexamethasone, respectively. The results of these experiments are summarized in Table 1, as a ratio of the relative binding affinities of each compound for the rbPR and rbGR receptors (rbPR/rbGR).

rabbit uterus = assay: Anti-McGinty and anti-Clauberg assays; type: in vivo; conditions: average of anti-McGinty and anti-Clauberg results relative to CDB-2914 = 1.00
Description: Also given in the Table are the relative biological activities of the same compounds in the rabbit uterus by the anti-McGinty and anti-Clauberg assays. Compound CDB-2914 (listed at the end of the Table) was used as the control or reference compound (rabbit Biological Activity=1.00) for these experiments because results of experiments using CDB-2914 have been published before (Hild-Petito et al., 1996; Passaro et al., 1997; Reel et al., 1998; Lamer et al., 2000). For the anti-McGinty test, immature female rabbits received a subcutaneous injection of 5 μg estradiol in 10% ethanol/sesame oil daily for 6 consecutive days. On day 7, animals underwent sterile abdominal surgery to ligate a 3-4 cm segment of both uterine horns. The test compound in appropriate solvent was injected intraluminally into the ligated segment of one uterine horn and vehicle alone into the other. A stimulating dose of progesterone (267 μg/day) was administered subcutaneously to each rabbit daily for the next three days to induce endometrial proliferation. All animals were sacrificed at day 10 for removal of the uterus where a segment central to the ligatures was removed and fixed in 10% neutral buffered formalin and submitted for histological processing. Five micron sections stained with hematoxylin and cosin were evaluated microscopically for the degree of endometrial glandular proliferation. The percent inhibition of endometrial proliferation for each rabbit was calculated and the mean of the group of five animals recorded. For the Anti-Clauberg test, immature female rabbits received a subcutaneous injection of 5 μg estradiol in 10% ethanol/sesame oil daily for 6 consecutive days. On day 7, animals received progesterone by subcutaneous injection (160 μg/day) and the experimental compound in appropriate vehicle orally or subcutaneously for five consecutive days. One group of rabbits received progesterone only. Twenty-four hours after the last dose, all animals were sacrificed for removal of the uterus which was cleaned of all fat and connective tissue, weighed to the nearest 0.2 mg and placed in 10% neutral buffered formalin for subsequent histological processing. Five micron sections stained with hematoxylin and eosin were evaluated microscopically for the degree of endometrial glandular proliferation. The percent inhibition of endometrial proliferation at each dose level of the test compound was derived by comparison with progesterone-stimulated animals alone. The data presented in Table 1 (rabbit Biol. Act.) reflects the average of the results obtained for each compound by the anti-McGinty and anti-Clauberg assays relative to CDB-2914.

Compound | rbPR/rbGR (ratio of the relative binding affinities for rbPR and rbGR) [1] | rabbit Biol. Act. (rabbit uterus)
4-benzoin-21-acetylthio-17α-acetoxy-11β-(4 N,N-dimethylaminophenyl)-19-norpregna-4,9-diene-3,20-dione [CDB-4119] | 2.60 | 0.10
21-(Cyp*-hydroxy)-17α-acetoxy-11β-(4 N,N-dimethylaminophenyl)-19-norpregna-4,9-diene-3,20-dione [CDB-4125] | 1.19 | 1.55
21-BMD-17α-acetoxy-11β-(4 N,N-dimethylaminophenyl)-19-norpregna-4,9-diene-3,20-dione [CDB-4111] | 1.30 | 0.36
21-methoxyacetyl-17α-acetoxy-11β-(4 N,N-dimethylaminophenyl)-19-norpregna-4,9-diene-3,20-dione [CDB-4362] | 4.74 | 1.25
CCC(=O)[C@@]1(OC(C)=O)CCC2C3CCC4=CC(=O)CCC4=C3C(c3ccc(N(C)C)cc3)C[C@@]21C (stereo partly drawn) [CDB-4030, 21-methyl-17α-acetoxy-11β-(4 N,N-dimethylaminophenyl)-19-norpregna-4,9-diene-3,20-dione] | 0.96 | –
CC(=O)O[C@]1(C(=O)CBr)CCC2C3CCC4=CC(=O)CCC4=C3C(c3ccc(N(C)C)cc3)C[C@@]21C (stereo partly drawn) [CDB-4031, 21-bromine-17α-acetoxy-11β-(4 N,N-dimethylaminophenyl)-19-norpregna-4,9-diene-3,20-dione] | 0.69 | –
CC(=O)O[C@]1(C(=O)CF)CCC2C3CCC4=CC(=O)CCC4=C3C(c3ccc(N(C)C)cc3)C[C@@]21C (stereo partly drawn) [CDB-4058, 21-flourine-17α-acetoxy-11β-(4 N,N-dimethylaminophenyl)-19-norpregna-4,9-diene-3,20-dione] | 1.08 | –
CC(=O)O[C@]1(C(=O)C[S+](C)[O-])CCC2C3CCC4=CC(=O)CCC4=C3C(c3ccc(N(C)C)cc3)C[C@@]21C (stereo partly drawn) [CDB-4101, 21-methoxythio-17α-acetoxy-11β-(4 N,N-dimethylaminophenyl)-19-norpregna-4,9-diene-3,20-dione] | 0.61 | –
CC(=O)O[C@]1(C2COC(C)(C)O2)CCC2C3CCC4=CC(=O)CCC4=C3C(c3ccc(N(C)C)cc3)C[C@@]21C (stereo partly drawn) [CDB-4110, 21-acetonide-17α-acetoxy-11β-(4 N,N-dimethylaminophenyl)-19-norpregna-4,9-diene-3,20-dione] | 0.70 | –
CC(=O)O[C@]1(C(=O)CO)CCC2C3CCC4=CC(=O)CCC4=C3C(c3ccc(N(C)C)cc3)C[C@@]21C (stereo partly drawn) [CDB-4152, 21-hydroxy-17α-acetoxy-11β-(4 N,N-dimethylaminophenyl)-19-norpregna-4,9-diene-3,20-dione] | 0.82 | –
CCOCC(=O)[C@@]1(OC(C)=O)CCC2C3CCC4=CC(=O)CCC4=C3C(c3ccc(N(C)C)cc3)C[C@@]21C (stereo partly drawn) [CDB-4167, 21-ethyloxy-17α-acetoxy-11β-(4 N,N-dimethylaminophenyl)-19-norpregna-4,9-diene-3,20-dione] | 1.69 | –
COCC(=O)C1(OC(C)=O)CCC2C3CCC4=CC(=NO)CCC4=C3C(c3ccc(N(C)C)cc3)C[C@@]21C (stereo partly drawn) [CDB-4205, 3-hydroxyamino-21-methoxy-17α-acetoxy-11β-(4 N,N-dimethylaminophenyl)-19-norpregna-4,9-diene-3,20-dione] | 1.99 | 1.00
CC(=O)OCC(=O)[C@@]1(OC(C)=O)CCC2C3CCC4=CC(=NO)CCC4=C3C(c3ccc(N(C)C)cc3)C[C@@]21C (stereo partly drawn) [CDB-4206, 3-hydroxyamino-21-acetoxy-17α-acetoxy-11β-(4 N,N-dimethylaminophenyl)-19-norpregna-4,9-diene-3,20-dione] | 1.44 | 0.68
CSCC(=O)[C@@]1(OC(C)=O)CCC2C3CCC4=CC(=O)CCC4=C3C(c3ccc(N(C)C)cc3)C[C@@]21C (stereo partly drawn) [CDB-4223, 21-methylthio-17α-acetoxy-11β-(4 N,N-dimethylaminophenyl)-19-norpregna-4,9-diene-3,20-dione] | 1.17 | –
CCOCC(=O)[C@@]1(OC(C)=O)CCC2C3CCC4=CC(=NO)CCC4=C3C(c3ccc(N(C)C)cc3)C[C@@]21C (stereo partly shown) [CDB-4226] | 1.51 | 0.54
COCC(=O)[C@@]1(OC(C)=O)CCC2C3CCC4=C(C(=O)c5ccccc5)C(=O)CCC4=C3C(c3ccc(N(C)C)cc3)C[C@@]21C (stereo partly drawn) [CDB-4239, 4-benzoin-21-methoxy-17α-acetoxy-11β-(4 N,N-dimethylaminophenyl)-19-norpregna-4,9-diene-3,20-dione] | 14.80 | –
CCC(=O)OCC(=O)[C@@]1(OC(C)=O)CCC2C3CCC4=CC(=O)CCC4=C3C(c3ccc(N(C)C)cc3)C[C@@]21C (stereo partly drawn) [CDB-4247, 21-propionyloxy-17α-acetoxy-11β-(4 N,N-dimethylaminophenyl)-19-norpregna-4,9-diene-3,20-dione] | 2.06 | –
CC(=O)O[C@]1(C(=O)COC(=O)CN)CCC2C3CCC4=CC(=O)CCC4=C3C(c3ccc(N(C)C)cc3)C[C@@]21C (stereo partly drawn) [CDB-4306, 21-glycinate-17α-acetoxy-11β-(4 N,N-dimethylaminophenyl)-19-norpregna-4,9-diene-3,20-dione] | 5.90 | 0.95
CC(=O)O[C@]1(C(=O)CSC#N)CCC2C3CCC4=CC(=O)CCC4=C3C(c3ccc(N(C)C)cc3)C[C@@]21C (stereo partly drawn) [CDB-4352, 21-cyanothio-17α-acetoxy-11β-(4 N,N-dimethylaminophenyl)-19 norpregna-4,9-diene-3,20-dione] | 4.21 | –
C=COCC(=O)[C@@]1(OC(C)=O)CCC2C3CCC4=CC(=O)CCC4=C3C(c3ccc(N(C)C)cc3)C[C@@]21C (stereo partly drawn) [CDB-4361, 21-vinyl ether-17α-acetoxy-11β-(4 N,N-dimethylaminophenyl)-19-norpregna-4,9-diene-3,20-dione] | 7.20 | –

From US20110053900A1, “PROGESTERONE ANTAGONISTS SUCH AS CDB-4124 IN THE TREATMENT OF BREAST CANCER” (Repros Therapeutics inc, priority 2008, published 2011)
